Activity data for 4 molecules are collected here from ChEMBL document CHEMBL1128072, “The synthesis and biological evaluation of hypericin analogs” (Bioorg Med Chem Lett, 1995).

Calls of active or inactive are those of the source. The rule behind the calls is not given here.

In experiment [1] the test system is Equine infectious anemia virus. The experiment in a line: In vitro anti-retroviral activity against equine infectious anemia virus(EIAV); Inactive. In kind it is functional, organism-based.
Experiment [2] relates to Equine infectious anemia virus. The experiment in a line: In vitro anti-retroviral activity against equine infectious anemia virus(EIAV); compound was active. The format is functional, organism-based.

Consider `Cc1c(O)c2c(=O)c3c(O)c(C)c(O)c4c5c(O)c(C)c(O)c6c(=O)c7c(O)c(C)c(O)c8c(c1O)c2c(c34)c(c78)c65`, for which the outcome in experiment [1] was inactive. As for `COc1cc(O)c2c(=O)c3c(O)cc(O)c4c5c(O)cc(O)c6c(=O)c7c(O)cc(OC)c8c1c2c(c34)c(c65)c78`, the result in experiment [2] was Active. On the same count and under the same terms, in the case of `Cc1cc(O)c2c(=O)c3c(O)cc(O)c4c5c(O)cc(O)c6c(=O)c7c(O)cc(C)c8c1c2c(c34)c(c78)c65` it was “Active”. Take `O=c1c2c(O)cc(O)c3c4c(O)cc(O)c5c(=O)c6c(O)cc(O)c7c8c(O)cc(O)c1c8c(c23)c(c54)c67`: in experiment [1], the outcome was inactive.
